Measured values as given in US20050281889A1, “Nutritional supplement for adults” (priority 2004, published 2005).

How the values were obtained:
[1] = in vivo; cited from earlier work
blood lymphocytes = experiment: Zinc dose response: lymphocyte response to mitogen PHA (thymidine uptake, 72 h culture); format: in vivo, human; conditions: for Lymphocyte response to PHA (stimulation index): adults, age 20-50 years
Procedure: The basic concept underlying the assessment of the most optimum nutrient amounts for a given age group uses the principle of “dose-response graphs”. At least four groups of individuals were provided with various amounts of a given nutrient and their immune responses were measured using established and accepted techniques. The amount of a nutrient that gave the best response was considered the optimum amount. Dose response graphs were determined for all vitamins and trace elements considered essential for human health, particularly immunity.
Data for the dose response chart for zinc in a group of 20 to 50 year old adults is shown in FIG. 1, with the total amount of zinc taken is shown for each group. To determine the magnitude of immune response, an aliquot of blood was withdrawn from each subject in the study, blood lymphocytes were separated, washed and mixed with the mitogen phytohemagglutinin (PHA) in previously determined optimum amount. The optimum amount of PHA used in the experiments was predetermined by a set of dose response graphs using lymphocytes of a healthy donor and four different concentrations of PHA. After culture in a sterile environment for 72 hours, the cells were washed and mixed with radioactive thymidine. The same steps were undertaken in a control sample in which only the culture medium was used, not PHA. The cells were washed and radioactivity determined.
Dietary intake of zinc was calculated based on three 24-hour recalls and by the food frequency questionnaire methods.

SMILES	biologic half-life in the body [1]	immune response (blood lymphocytes; 12 mg of zinc intake, in combination with zinc from a balanced diet)	Lymphocyte response to PHA (stimulation index) (blood lymphocytes; supplemental zinc 12 mg)	Lymphocyte response to PHA (stimulation index) (blood lymphocytes; supplemental zinc 25 mg)	Lymphocyte response to PHA (stimulation index) (blood lymphocytes; supplemental zinc 50 mg)
Cc1ncc(C[n+]2csc(CCO)c2C)c(N)n1 [Thiamin]	about 15 days				
[Zn] [zinc]		best immune response	78	48	41
